Test results published in ChEMBL document CHEMBL1146841, “Discovery of thiochroman derivatives bearing a carboxy-containing side chain as orally active pure antiestrogens” (Bioorg Med Chem Lett, 2006).

Legend:
Mus musculus [1] = test: Agonist activity assessed as increase in uterine weight in ovariectomized mouse at 10 mg/kg, sc; type: functional; details: route subcutaneous
Mus musculus [2] = test: Antagonist activity assessed as inhibition of estrogen-stimulated uterine weight gain in ovariectomized mouse at 10 mg/kg, sc; type: functional; details: route subcutaneous
Mus musculus [3] = test: Antagonist activity assessed as inhibition of estrogen-stimulated uterine weight gain in ovariectomized mouse at 10 mg/kg, po; type: functional
[4] = molecular target: T1, Estrogen receptor (Homo sapiens) (UniProt P03372); test: Displacement of [3H]estradiol from human recombinant ERalpha relative to estradiol
T1 sequence (whole entry): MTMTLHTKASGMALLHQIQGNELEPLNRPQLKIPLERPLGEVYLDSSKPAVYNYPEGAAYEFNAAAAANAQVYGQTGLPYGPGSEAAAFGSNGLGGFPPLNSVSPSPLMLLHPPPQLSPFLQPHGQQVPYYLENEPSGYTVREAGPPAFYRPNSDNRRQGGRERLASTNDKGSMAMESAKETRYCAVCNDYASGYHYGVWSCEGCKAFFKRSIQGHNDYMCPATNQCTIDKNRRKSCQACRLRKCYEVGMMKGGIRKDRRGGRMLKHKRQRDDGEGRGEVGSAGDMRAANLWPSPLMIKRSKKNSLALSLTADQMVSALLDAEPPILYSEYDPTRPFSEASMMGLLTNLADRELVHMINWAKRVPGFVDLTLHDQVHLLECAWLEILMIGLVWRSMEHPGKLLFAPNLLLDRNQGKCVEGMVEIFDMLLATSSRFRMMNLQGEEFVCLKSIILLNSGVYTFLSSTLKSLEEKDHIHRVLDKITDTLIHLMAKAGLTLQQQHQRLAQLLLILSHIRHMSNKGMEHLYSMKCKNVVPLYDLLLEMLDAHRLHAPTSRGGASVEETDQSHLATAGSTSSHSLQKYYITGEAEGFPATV

Mus musculus [5] = test: Antagonist activity assessed as inhibition of estrogen-stimulated uterine weight gain in ovariectomized mouse at 3 mg/kg, po; type: functional
Mus musculus [6] = test: Antagonist activity assessed as inhibition of estrogen-stimulated uterine weight gain in ovariectomized mouse at 30 mg/kg, po; type: functional
Mus musculus [7] = test: Antagonist activity assessed as inhibition of estrogen-stimulated uterine weight gain in ovariectomized mouse at 50 mg/kg, po; type: functional
[8] = AUC in duodenally dosed Sprague-Dawley rat peripheral blood at 10 mg/kg; type: ADME, organism-based; parameters: dose 10 mg/kg, route intraduodenal
Rattus norvegicus [9] = test: (§1) AUC in Sprague-Dawley rat at 20 mg/kg, po; type: ADME, organism-based, Plasma; parameters: dose 20 mg/kg, route oral; details: in vivo
[10] = AUC in duodenally dosed Sprague-Dawley rat portal vein at 10 mg/kg; type: ADME, organism-based; parameters: dose 10 mg/kg, route intraduodenal; details: portal vein plasma
[11] = Bioavailability in Sprague-Dawley rat; type: ADME, organism-based; details: in vivo
Rattus norvegicus [12] = test: AUC in Sprague-Dawley rat at 10 mg/kg, iv; type: ADME, organism-based, Plasma; parameters: dose 10 mg/kg, route intravenous; details: in vivo
[13] = as §1; type: ADME, organism-based, Plasma; parameters: dose 20 mg/kg, route oral; details: Sprague-Dawley, plasma

Row | Compound | Activity (Mus musculus [1]) | inhibition in vivo at 10 mg/kg (Mus musculus [2]) | inhibition in vivo at 10 mg/kg (Mus musculus [3]) | RBA [4] | inhibition in vivo at 3 mg/kg (Mus musculus [5]) | inhibition in vivo at 30 mg/kg (Mus musculus [6]) | inhibition in vivo at 50 mg/kg (Mus musculus [7]) | AUC [8] | AUC (Rattus norvegicus [9]) | AUC [10] | bioavailability [11] | AUC (Rattus norvegicus [12]) | AUC [13]
1 | COC(=O)C(CCCCCCCC[C@@H]1c2ccc(O)cc2SC[C@]1(C)c1ccc(O)cc1)CCCC(F)(F)C(F)(F)F (some centres undefined) | -1% | 52% | 40% | 7% | – | – | – | – | – | – | – | – | –
2 | C[C@]1(c2ccc(O)cc2)CSc2cc(O)ccc2[C@H]1CCCCCCCCCC(CCCC(F)(F)C(F)(F)F)C(=O)O (some centres undefined) | – | – | 81% | 0.9% | 45% | – | – | – | – | – | – | – | –
3 | C[C@]1(c2ccc(O)cc2)CSc2cc(O)ccc2[C@H]1CCCCCCCCCCC(CCCC(F)(F)C(F)(F)F)C(=O)O (some centres undefined) | – | – | 62% | 0.2% | – | – | – | – | – | – | – | – | –
4 | C[C@]1(c2ccc(O)cc2)CSc2cc(O)ccc2[C@H]1CCCCCCCCCC(CCC(F)(F)C(F)(F)C(F)(F)C(F)(F)F)C(=O)O (some centres undefined) | – | – | 85% | 0.3% | 38% | 99% | – | – | – | – | – | – | –
5 | C[C@]1(c2ccc(O)cc2)CSc2cc(O)ccc2[C@H]1CCCCCCCCCNS(=O)(=O)CCCC(F)(F)C(F)(F)F | 3% | 99% | 31% | 52% | – | – | 73% | – | – | – | – | – | –
6 | C[C@]12CC[C@@H]3c4ccc(O)cc4C[C@@H](CCCCCCCCC[S+]([O-])CCCC(F)(F)C(F)(F)F)[C@H]3[C@@H]1CC[C@@H]2O (some centres undefined) [FULVESTRANT] | -1% | 95% | 54% | 138% | 29% | 72% | 86% | 7 ng·h/mL | 1670 ng·h/mL | 56 ng·h/mL | 16% | 5300 ng·h/mL | –
7 | C[C@]1(c2ccc(O)cc2)CSc2cc(O)ccc2[C@H]1CCCCCCCCC(CCCCCC(F)(F)C(F)(F)F)C(=O)O (some centres undefined) | – | – | 86% | 0.8% | 52% | 94% | – | – | – | – | – | – | –
8 | C[C@]1(c2ccc(O)cc2)COc2cc(O)ccc2[C@H]1CCCCCCCCCNS(=O)(=O)NCCCC(F)(F)C(F)(F)F | 1% | 100% | 41% | 42% | – | – | 69% | – | – | – | – | – | –
9 | C[C@]1(c2ccc(O)cc2)CSc2cc(O)ccc2[C@H]1CCCCCCCCC(CCCC(F)(F)C(F)(F)F)C(=O)O (some centres undefined) | 1% | 95% | 77% | 0.8% | 41% | 94% | – | 2040 ng·h/mL | 209000 ng·h/mL | 2510 ng·h/mL | 46% | 228000 ng·h/mL | –
10 | C[C@]1(c2ccc(O)cc2)CSc2cc(O)ccc2[C@H]1CCCCCCCCCC(CCCCC(F)(F)C(F)(F)F)C(=O)O (some centres undefined) | – | – | 79% | 0.2% | 53% | 96% | – | – | – | – | – | – | –
11 | C[C@]1(c2ccc(O)cc2)CSc2cc(O)ccc2[C@H]1CCCCCCCCC[S+]([O-])CCCC(F)(F)C(F)(F)F (some centres undefined) | -2% | 101% | 51% | 200% | – | – | 94% | 13 ng·h/mL | – | 88 ng·h/mL | 22% | 8220 ng·h/mL | 3590 ng·h/mL
12 | C[C@]1(c2ccc(O)cc2)CSc2cc(O)ccc2[C@H]1CCCCCCCCC(CCCCC(F)(F)C(F)(F)F)C(=O)O (some centres undefined) | – | – | 87% | 1.3% | 69% | 97% | – | – | – | – | – | – | –
13 | C[C@]1(c2ccc(O)cc2)CSc2cc(O)ccc2[C@H]1CCCCCCCC(CCCC(F)(F)C(F)(F)F)C(=O)O (some centres undefined) | – | – | 20% | 0.5% | – | – | – | – | – | – | – | – | –
14 | C[C@]1(c2ccc(O)cc2)CSc2cc(O)ccc2[C@H]1CCCCCCCCC(CCC(F)(F)C(F)(F)C(F)(F)C(F)(F)F)C(=O)O (some centres undefined) | – | – | 93% | 0.6% | 63% | 96% | – | – | – | – | – | – | –
15 | C[C@]1(c2ccc(O)cc2)CSc2cc(O)ccc2[C@H]1CCCCCCCCCNC(=O)NS(=O)(=O)CCCC(F)(F)C(F)(F)F | 8% | 33% | – | 1.2% | – | – | – | – | – | – | – | – | –
16 | C[C@]1(c2ccc(O)cc2)CSc2cc(O)ccc2[C@H]1CCCCCCCCC(CCCC(F)(F)C(F)(F)C(F)(F)C(F)(F)F)C(=O)O (some centres undefined) | – | – | 93% | 0.3% | 61% | 99% | – | – | – | – | – | – | –
17 | C[C@]1(c2ccc(O)cc2)COc2cc(O)ccc2[C@H]1CCCCCCCCC[S+]([O-])CCCC(F)(F)C(F)(F)F (some centres undefined) | 1% | 94% | 66% | 96% | – | – | 88% | – | – | – | – | – | –
18 | C[C@]1(c2ccc(O)cc2)COc2cc(O)ccc2[C@H]1CCCCCCCCCNC(=O)NCCCC(F)(F)C(F)(F)F | 10% | 77% | 1% | 57% | – | – | – | – | – | – | – | – | –
19 | C[C@]1(c2ccc(O)cc2)CSc2cc(O)ccc2[C@H]1CCCCCCCCCC(CCCC(F)(F)C(F)(F)C(F)(F)C(F)(F)F)C(=O)O (some centres undefined) | – | – | 86% | 0.4% | 55% | 100% | – | – | – | – | – | – | –
